What was measured:
TrkA = TrkA (Homo sapiens (Human), UniProt P04629); assay: TrkA kinase-inhibiting activity using human TrkA expressing cells (CellSenser TrkA-NFAT-bla CHO-K1, NGF-stimulated reporter assay); assay type: cell-based; settings: CHO-K1 cells expressing human TrkA and NFAT-bla; NGF 50 ng/ml; read-out: TrkA inhibitory activity (IC50; μM)
Experimental: TrkA kinase-inhibiting activity in cell systems was measured using CHO-K1 cells expressing human TrkA and NFAT-bla (CellSenser™ TrkA-NFAT-bla CHO-K1 cells, Invitrogen).
On the day before the assay, CellSenser™ TrkA-NFAT-bla CHO-K1 cells were suspended in an assay medium (Opti-MEM1 Reduced Serum Medium (Invitrogen) containing 0.5% dialysed fetal bovine serum (Invitrogen), 0.1 mM nonessential amino acids (Invitrogen), 1 mM sodium pyruvate (Invitrogen) and antibiotics (100 U/mL penicillin and 100 μg/mL streptomycin (Invitrogen)) and plated at a density of 2.4×10^4 cells/40 μL/well in a 96-well clear bottom plate (Corning, Catalogue No.: 3882). In some wells were added only the assay medium at 40 μL/well (Cell-free). On the day of the assay, 10 mM of the present compound (DMSO solution) was distributed in a 96-well plate (Costar, Catalogue No.: 3363) and serially diluted with DMSO with the geometrical ratio of 3. The serial dilutions were diluted with the assay medium to 100-fold to prepare a solution of the present compound with a 10-times concentration (DMSO concentration: 1%). To the plate where cells were plated was added the present compound at 5 μL/well and the plate was incubated in a CO2 incubator with 5% CO2, 95% Air at 37° C. for 30 minutes. For a control and a blank, the assay medium containing 1% DMSO was added at 5 μL/well in place of the solution of the present compound. Subsequently the assay medium containing NGF (Mouse 2.5s, Natural, Invitrogen) was added to the plate at 5 µL/well (final concentration of NGF: 50 ng/ml) and the plate was incubated in a CO2 incubator with 5% CO2, 95% Air at 37° C. for 5 hours. For a group of blanks, the assay medium was added in place of NGF at 5 μL/well. A reporter assay detection reagent (10 μL/well) was added to the plate and the plate was then incubated in the dark at room temperature for 120 minutes. The reporter assay detection reagent was prepared from LiveBLAzer™-FRET B/G Loading Kit (Invitrogen). On an Analyst GT (Molecular Devices Japan, K.K.) the wells were irradiated with excitation light at 405 nm and the fluorescence intensities at 460 nm and 530 nm were measured. The time resolved fluorescence resonance energy transfer (TR-FRET) ratio of each well was calculated according to the following Equation 2. TR-FRET Ratio=(A460X−A460F)/(A530X−A530F) Equation 2
wherein A460X: the fluorescence intensity at 460 nm of the present compound, control or blank;
A460F: the fluorescence intensity at 460 nm of the Cell-free;
A530X: the fluorescence intensity at 530 nm of the present compound, control or blank; and
A530F: the fluorescence intensity at 530 nm of the Cell-free. […]
The IC50 value of the present compound was calculated from the inhibition curve based on the inhibition rate of the present compound at respective concentrations.

[1] = test system: NGF-induced vascular hyper permeability; assay: Suppression of rat NGF-induced vascular hyper permeability (in vivo test, Evans Blue); settings: oral, 12 hours after administration, read-out: Rates of Suppression for Vascular Hyper Permeability (%)
Experimental: TrkA-inhibiting activity of the present compound was evaluated in vivo. The present compound dissolved in a medium was orally administered (adminstered volume: 5 mL/kg) to male CD(SD)IGS rats (7- to 9-week old, Charles River laboratories Japan, Inc.) shaved on the back. A medium was orally administered (adminstered volume: 5 mL/kg) to the control and normal groups. After 6 or 12 hours of administration, 3 μg/mL of a NGF (Mouse 2.5s, Natural, Invitrogen) solution prepared in 0.1% BSA (Sigma-Aldrich)-containing saline was intracutaneously administered (dose; 50 μL/site) at 3 sites on the back of animals under halothane anesthesia. For the normal group, 0.1% BSA-containing saline was intracutaneously administered (dose; 50 μL/site) at 3 sites on the back. Immediately after intracutaneous administration, 1% Evans Blue (Tokyo Chemical Industry Co., Ltd.) was administered intravenously from tail (adminstered volume: 3 mL/kg). After 10 minutes of administration, the animals were sacrificed by bleeding due to incision of the abdominal aorta. The sites of intracutaneous administration on the back (3 sites) were excised and the skin samples were respectively transferred to the wells in a 48-well plate (Asahi Glass Co., Ltd.). Formamide (0.8 mL/well) was added to the plate and the plate was sealed and incubated overnight at 60° C. The formamide extraction solution (200 μL) was transferred to a 96-well plate and the absorbance (wavelength: 620 nm) of Evans Blue extracted in formamide was measured on an absorbance microplate reader (SpectraMAX 190, Molecular Devices Japan, K.K.). Standard samples of Evans Blue dissolved in formamide (0, 0.78, 1.56, 3.13, 6.25, 12.5, 25 and 50 μg/mL) were measured at the same time for the absorbance (wavelength: 620 nm) to generate a calibration curve. Based on the calibration curve and the absorbances of samples, the concentrations of Evans Blue in the sample was calculated. The concentrations of Evans Blue for three skin samples collected from one aminal were averaged to obtain the vale for the animal. The rate of suppression for rat NGF-induced vascular hyper permeability of the present compound was calculated according to the following Equation 4: Suppression rate (%)=(1−(AX−AN)/(AC−AN)}×100 Equation 4
wherein AX: the concentration of Evans Blue of the test compound (an average value of 3 samples from one animal);
AN: the concentration of Evans Blue of the normal group (an average value of 3 samples from one animal);
AC: the concentration of Evans Blue of the control group (an average value of 3 samples from one animal).

Chain of TrkA (P04629 33-796): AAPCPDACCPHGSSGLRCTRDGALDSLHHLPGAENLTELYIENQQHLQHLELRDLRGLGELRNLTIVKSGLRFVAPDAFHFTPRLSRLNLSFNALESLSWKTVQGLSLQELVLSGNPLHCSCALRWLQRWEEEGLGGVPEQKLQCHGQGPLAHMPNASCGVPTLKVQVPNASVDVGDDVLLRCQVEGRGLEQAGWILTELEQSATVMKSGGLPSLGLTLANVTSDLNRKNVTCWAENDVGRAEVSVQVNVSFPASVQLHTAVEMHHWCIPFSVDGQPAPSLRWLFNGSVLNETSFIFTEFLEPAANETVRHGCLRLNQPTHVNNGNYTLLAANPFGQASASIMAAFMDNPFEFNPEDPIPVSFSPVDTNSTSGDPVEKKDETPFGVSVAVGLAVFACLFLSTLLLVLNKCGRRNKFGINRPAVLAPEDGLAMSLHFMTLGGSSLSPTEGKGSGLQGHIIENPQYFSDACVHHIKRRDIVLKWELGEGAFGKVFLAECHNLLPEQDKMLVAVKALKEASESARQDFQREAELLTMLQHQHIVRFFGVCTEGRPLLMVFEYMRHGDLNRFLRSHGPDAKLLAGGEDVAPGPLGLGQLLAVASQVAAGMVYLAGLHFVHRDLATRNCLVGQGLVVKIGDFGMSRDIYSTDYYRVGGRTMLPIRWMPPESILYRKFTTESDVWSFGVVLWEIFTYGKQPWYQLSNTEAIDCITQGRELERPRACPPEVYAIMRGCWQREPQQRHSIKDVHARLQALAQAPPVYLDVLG

CCNc1ncc(-c2ccc(Oc3ncc(NC(=O)Nc4cc(C(F)(F)F)cnc4-c4ccc(C)cc4)cn3)cc2)s1 [Example 23, 1-(2-{4-[2-(ethylamino)-1,3-thiazol-5-yl]phenoxy}-5-pyrimidinyl)-3-[2-(4-methylphenyl)-5-(trifluoromethyl)-3-pyridinyl]urea]
IC50 (TrkA): 0.004 µM | inhibition in vivo at 1 mg/kg [1]: 78%

CCNc1ncc(-c2ccc(Oc3ccc(NC(=O)Nc4cc(C(F)(F)F)cnc4-c4ccc(C)c(C)c4)cn3)cc2)s1 [Example 34, 1-[2-(3,4-dimethylphenyl)-5-(trifluoromethyl)-3-pyridinyl]-3-(6-{4-[2-(ethylamino)-1,3-thiazol-5-yl]phenoxy}-3-pyridinyl)urea]
IC50 (TrkA): 0.006 µM | inhibition in vivo at 1 mg/kg [1]: 75%

CCNc1ncc(-c2ccc(Oc3ncc(NC(=O)Nc4cc(C(F)(F)F)cnc4Oc4ccccc4)cn3)cc2)s1 [Example 48, 1-(2-{4-[2-(ethylamino)-1,3-thiazol-5-yl]phenoxy}-5-pyrimidinyl)-3-[2-phenoxy-5-(trifluoromethyl)-3-pyridinyl]urea]
IC50 (TrkA): 0.01 µM | inhibition in vivo at 1 mg/kg [1]: 71%

O=C(Nc1cnc(Oc2ccc(-c3cnc(N4CCCC4=O)s3)cc2)nc1)Nc1cc(C(F)(F)F)cnc1-c1ccccc1 [Example 54, 1-(2-{4-[2-(2-oxo-1-pyrrolidinyl)-1,3-thiazol-5-yl]phenoxy}-5-pyrimidinyl)-3-[2-phenyl-5-(trifluoromethyl)-3-pyridinyl]urea]
IC50 (TrkA): 0.004 µM | inhibition in vivo at 1 mg/kg [1]: 88%

Cc1cccc(-c2ncc(C(F)(F)F)cc2NC(=O)Nc2cnc(Oc3ccc(-c4cnc(N5CCCC5=O)s4)cc3)nc2)c1 [Example 57, 1-[2-(3-methylphenyl)-5-(trifluoromethyl)-3-pyridinyl]-3-(2-{4-[2-(2-oxo-1-pyrrolidinyl)-1,3-thiazol-5-yl]phenoxy}-5-pyrimidinyl)urea]
IC50 (TrkA): 0.003 µM | inhibition in vivo at 1 mg/kg [1]: 78%

CCCNc1ncc(-c2ccc(Oc3ncc(NC(=O)Nc4cc(C(F)(F)F)ccc4Cl)cn3)cc2)s1 [Example 85-117, 1-[2-chloro-5-(trifluoromethyl)phenyl]-3-(2-{4-[2-(propylamino)-1,3-thiazol-5-yl]phenoxy}-5-pyrimidinyl)urea]
IC50 (TrkA): 0.002 µM | inhibition in vivo at 1 mg/kg [1]: 74%

— patent US9242977B2, “Trk-inhibiting compound” (ONO PHARMACEUTICAL CO., LTD., priority 2012, dated 2016)
